# Measurements as given in patent US8877707B2, “Inhibitors of HCV NS5A” (Presidio Pharmaceuticals, Inc., priority 2010, dated 2014).
# Read-outs that look alike come from different tables or passages of the source.
# Test system: HCV genotype 1b replicon in Huh 7 cells
# Assay: HCV replicon assay (1b_Huh-Luc/Neo-ET cell line, luciferase readout)
# Format: cell-based
# Conditions: Hepatitis C virus, read-out: Inhibition of HCV genotype 1b
# In short: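 Huh 7 cells carrying a bicistronic genotype 1b luciferase replicon were treated with compound in triplicate the day after plating and incubated 72 h. Luciferase activity expressed as % of untreated control; EC50 from a four-parameter logistic fit, repeated several times.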
# [1] = Table 1, genotype 1b replicon, Huh 7 cells, 72 h, luciferase
# [2] = Table 2, genotype 1b replicon, Huh 7 cells, 72 h, luciferase
SMILES,EC50 [1],"EC50 (Huh-7, HCV 1b replicon)",other results
COC(=O)N[C@H](C(=O)N1CCC[C@H]1c1ncc(-c2ccc3cc(-c4ccc(-c5cnc([C@@H]6CCCN6C(=O)[C@H](NC(=O)OC6CCOCC6)c6ccccc6)[nH]5)cc4F)ncc3c2)[nH]1)C(C)C [compound 153],< 1 nM,–,–
COC(=O)N[C@@H](C)C(=O)N1CCC[C@H]1c1ncc(-c2ccc3nc(-c4ccc(-c5cnc([C@@H]6CCCN6C(=O)[C@H](NC(=O)OC)c6ccccc6)[nH]5)c(F)c4)ccc3c2)[nH]1 [compound 459],–,< 1 nM,–
COC(=O)N[C@H](C(=O)N1CCC[C@H]1c1nc2ccc(-c3ccc4cc(-c5cnc([C@@H]6CCCN6C(=O)[C@H](NC(=O)OC)c6ccccc6)[nH]5)ccc4c3)cc2[nH]1)C(C)C [compound 179],< 1 nM,–,–
COC(=O)N[C@H](C(=O)N1CCC[C@H]1c1nc(-c2ccc3c(=O)n(-c4ccc(-c5cnc([C@@H]6CCCN6C(=O)[C@@H](NC(=O)OC)C(C)C)[nH]5)cc4)ccc3c2)c[nH]1)C(C)C [compound 287],< 1 nM,–,–
COC(=O)N[C@H](C(=O)N1CCC[C@H]1C(=O)Nc1ccc(-c2ccc3cc(-c4cnc([C@@H]5CCCN5C(=O)[C@@H](NC(=O)OC)C(C)C)[nH]4)ccc3n2)cc1)C(C)C [compound 541],–,1 to 9.9 nM,–
C#CC[C@H](NC(=O)OC)C(=O)N1CCC[C@H]1c1ncc(-c2ccc3nc(-c4ccc(-c5cnc([C@@H]6CCCN6C(=O)[C@@H](NC(=O)OC)C6CCOCC6)[nH]5)cc4F)ccc3c2)[nH]1 [compound 162],< 1 nM,–,–
CC[C@@H](C)[C@H](NC(=O)OC)C(=O)N1CCC[C@H]1c1ncc(-c2ccc3cc(-c4ccc5nc([C@@H]6CCCN6C(=O)[C@@H](NC(=O)OC)[C@H](C)CC)[nH]c5c4)ncc3c2)[nH]1 [compound 375],–,–,EC50 [2]: < 1 nM
COC(=O)N[C@@H](C)C(=O)N1CCC[C@H]1c1nc(-c2ccc3nc(N4CCC(c5cnc([C@@H]6CCCN6C(=O)[C@H](C)NC(=O)OC)[nH]5)CC4)ccc3c2)c[nH]1 [compound 273],1 to 9.9 nM,–,–
COC(=O)N[C@H](C(=O)N1CCC[C@H]1c1ncc(-c2ccc(-c3ccc4cc(-c5cnc([C@@H]6CCCN6C(=O)[C@@H](NC(=O)OC)C6CCOCC6)[nH]5)ccc4n3)cc2F)[nH]1)C(C)C [compound 123],< 1 nM,–,–
COC(=O)N[C@H](C(=O)N1CCC[C@H]1CNC(=O)c1cnc2cc(-c3ccc4c(ccc5nc([C@@H]6CCCN6C(=O)[C@@H](NC(=O)OC)C(C)C)[nH]c54)c3)ccc2c1)C(C)C [compound 550],–,1 to 9.9 nM,–
COC(=O)N[C@H](C(=O)N1CCC[C@H]1c1ncc(-c2ccc3cc(-c4cc5[nH]c([C@@H]6CCCN6C(=O)[C@@H](NC(=O)OC)[C@@H](C)OC)nc5cn4)ccc3c2)[nH]1)[C@@H](C)OC [compound 415],–,–,EC50 [2]: < 1 nM
COC(=O)N[C@H](C(=O)N1CCN(C(=O)OC)C[C@H]1c1ncc(-c2ccc(-c3ccc4cc(-c5cnc([C@@H]6CCCN6C(=O)[C@@H](NC(=O)OC)C6CCOCC6)[nH]5)ccc4n3)cc2)[nH]1)C(C)C [compound 470],–,< 1 nM,–
COC(=O)N[C@@H](C)C(=O)N1CCC[C@H]1C(=O)Nc1ccc(-c2ccc3cc(-c4cnc([C@@H]5CCCN5C(=O)[C@H](C)NC(=O)OC)[nH]4)ccc3c2)cc1 [compound 570],–,1 to 9.9 nM,–
COC(=O)N[C@H](C(=O)N1CCC[C@H]1c1ncc(-c2ccc(-c3nc4ccc(-c5cnc([C@@H]6CCCN6C(=O)[C@@H](NC(=O)OC)[C@@H](C)OC)[nH]5)cc4o3)cc2)[nH]1)C(C)C [compound 253],< 1 nM,–,–
COC(=O)N[C@H](C(=O)N1CCC[C@H]1c1ncc(-c2ccc3cc(-c4ccc5nc([C@@H]6CCCN6C(=O)[C@@H](NC(=O)OC)[C@@H](C)OC)[nH]c5c4)ccc3c2)[nH]1)[C@@H](C)OC [compound 176],< 1 nM,–,–
COC(=O)N[C@H](C(=O)N1CCC[C@H]1c1ncc(-c2ccc3nc(-c4ccc(-c5cnc([C@@H]6CCCN6C(=O)[C@H](NC(=O)OC)c6ccccc6)[nH]5)c(F)c4)ccc3c2)[nH]1)[C@@H](C)OC [compound 460],–,< 1 nM,–
COC(=O)N[C@H](C(=O)N1CCC[C@H]1c1ncc(-c2ccc3cc(-c4ccc(-c5cnc([C@@H]6CCCN6C(=O)[C@H](NC(=O)OC)c6ccccc6)[nH]5)c(F)c4)ncc3c2)[nH]1)C(C)C [compound 155],< 1 nM,–,–
